Measured values reported in PMC3522636, “4F Decreases IRF5 Expression and Activation in Hearts of Tight Skin Mice” (PLoS ONE, 2012).
“Also recorded” adds a separate entry of the source.

Columns and labels:
[1] = test system: Human umbilical vein endothelial cells; experiment: Cellular uptake of B-4F in endothelial cells; type: cell-based; settings: vs unlabeled 4F, confocal; for increase of fluorescence intensity in EC: 4 hours, fluorescein-streptavidin
Procedure: Human umbilical vein endothelial cells (EC; Lonza, Walkersville, MD) were incubated in EGM complete media containing 4F or B-4F (10 and 50 µg/ml) for 4 hours. The EC cultures were washed with PBS, fixed in PBS containing 1% paraformaldehyde, and permeabilized with PBS containing 0.5% Triton-X. The permeabilized sections were incubated with fluorescein-conjugated streptavidin (1 µg/ml) for 30 minutes followed by 3 PBS washes. The fixed and fluorescently labeled slides were mounted in aqueous mounting media and sections inspected and analyzed by confocal microscopy.

IRF5 = target: T1, IRF5 (Homo sapiens, UniProt Q13568); experiment: B-4F pulldown assay from EC cytosolic fractions spiked with recombinant IRF5; type: binding; settings: immunoblot
T1 construct: purchased GenScript USA Inc
T1 sequence (Q13568 1-498): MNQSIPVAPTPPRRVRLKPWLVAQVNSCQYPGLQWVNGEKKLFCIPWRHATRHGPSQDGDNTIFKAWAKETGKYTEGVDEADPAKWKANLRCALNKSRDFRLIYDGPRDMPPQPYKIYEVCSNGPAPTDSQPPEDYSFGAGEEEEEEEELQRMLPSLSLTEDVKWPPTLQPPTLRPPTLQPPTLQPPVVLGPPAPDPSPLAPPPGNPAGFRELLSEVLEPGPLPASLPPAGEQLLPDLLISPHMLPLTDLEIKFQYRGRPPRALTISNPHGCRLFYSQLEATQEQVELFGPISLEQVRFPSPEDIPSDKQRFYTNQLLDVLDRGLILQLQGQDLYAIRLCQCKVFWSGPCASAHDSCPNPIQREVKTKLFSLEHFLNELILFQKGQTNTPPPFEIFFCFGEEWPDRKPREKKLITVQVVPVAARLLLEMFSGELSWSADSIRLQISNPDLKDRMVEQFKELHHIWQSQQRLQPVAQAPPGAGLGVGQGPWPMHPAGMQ
Procedure: B-4F Pulldown Assays: To determine whether 4F interacts with IRF5 in the presence of cystosol proteins, we performed 4F pulldown assays on EC cytosolic fractions spiked with recombinant IRF5. Briefly, cytosolic EC fractions were precleared with SA agarose beads (Cat#15942-050, Invitrogen) for 30 minutes at 4°C. IRF5 interactions were enhanced by adding recombinant IRF5 (2% wt/vol, Genscript USA Inc.) to the endothelial cytosolic fractions. 4F and B-4F were added to the cytosolic fractions and incubated for 3 hours at 4°C. SA agarose beads were added and the samples mixed end-over-end overnight at 4°C. The following day the SA agarose beads were isolated by centrifugation. The proteins associated with B-4F were released from the beads with Laemmli buffer and separated by SDS-PAGE (4–15%) as above. IRF5 levels in the pulldown samples were determined by autoradiography of immunoblots as above.

[2] = target: biotin-labeled 4F (biotin-labeled …-NH2); experiment: pull-down; B-4F added to precleared endothelial cell cytosolic fractions spiked with recombinant IRF5, 3 h at 4°C; SA agarose beads overnight at 4°C; immunoblot for IRF5

Q: Which “increase of fluorescence intensity in EC” value ([1]; B-4F 10 µg/ml) does the source give for “biotin-labeled DWFKAFYDKVAEKFKEAF-NH2 [B-4F, biotin-labeled 4F, synthesized with one more cycle with FMOC-Lys(biotinyl-ε-aminocaproyl)-OH]” here?
A: approximately 30%

Q: And the “increase of fluorescence intensity in EC” value ([1]; B-4F 50 µg/ml, p≤0.05)?
A: 3.6 fold

Q: What about the “uptake into EC (in words)” value ([1]; B-4F 10 and 50 µg/ml, 4 hours (method), 3 hours (Figure 6)) of the same substance?
A: greater fluorescence in EC cultures incubated with 10 and 50 µg/ml of B-4F than in EC cultures incubated with equal concentrations of unlabeled 4F; also recorded: B-4F content is increased in ECs incubated with 10 and 50 µg/ml

Q: What about the “association with IRF5 in presence of EC cytosolic proteins (in words)” value (IRF5; 3 hours at 4°C, SA agarose beads overnight at 4°C) of the same substance?
A: associates with IRF5 even in the presence of EC cytosolic proteins

Q: And the “IRF5 bound to the B-4F precipitate relative to control” value (IRF5; EC lysates with recombinant IRF5 (10 µg/mL), SA-agarose pulldown, lane 2 vs control lane 1)?
A: 2.5 fold

Q: For “recombinant IRF5 (from UniProt Q13568 1-498) (natural protein)”, which fold IRF5 in the B-4F precipitate over control lane 1 [2] is on record?
A: 2.5 fold
